pKi: −log10 of the molar value. Counter-ions that a name gives are not always drawn.

One test addresses T1, serotonin 2 receptor (Rattus norvegicus, UniProt P14842).
T1 construct: To the receptor fraction of the cerebral cortex were added a test compound and 0.3 nM of [^3H] ketanserin; from tissue; host or cells: rat cerebral cortex membrane fraction
The experiment in a line: Binding test on [3H] ketanserin, cerebral cortex receptor fraction. Further details: species or system SD rats. The following applies: 0.3 nM [3H] ketanserin, 37° C. 15 min, read-out: 5HT2.

A further test addresses T2, serotonin 1A receptor (Rattus norvegicus, UniProt P19327).
T2 construct: To the receptor fraction of the hippocampus were added a test compound and 0.5 nM of [^3H]; 8-hydroxy-dipropylaminotetralin; from tissue; host or cells: rat hippocampus membrane fraction
T2 sequence (P19327 1-422): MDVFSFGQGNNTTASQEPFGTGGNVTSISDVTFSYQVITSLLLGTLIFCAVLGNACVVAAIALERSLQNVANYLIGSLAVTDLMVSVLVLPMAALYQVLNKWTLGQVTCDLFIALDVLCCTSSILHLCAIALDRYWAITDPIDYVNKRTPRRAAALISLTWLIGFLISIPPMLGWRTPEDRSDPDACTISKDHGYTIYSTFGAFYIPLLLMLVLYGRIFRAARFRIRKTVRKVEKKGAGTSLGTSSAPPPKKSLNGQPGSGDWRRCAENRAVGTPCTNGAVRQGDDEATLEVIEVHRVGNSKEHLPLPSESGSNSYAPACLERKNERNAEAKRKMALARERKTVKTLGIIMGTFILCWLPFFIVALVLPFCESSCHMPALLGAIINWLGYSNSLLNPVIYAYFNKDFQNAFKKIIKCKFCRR
The experiment in a line: Binding test on [3H] 8-hydroxy-dipropylaminotetralin, hippocampus receptor fraction. More on the design: species or system SD rats. The following applies: rat hippocampus receptor fraction, 0.5 nM [3H] 8-OH-DPAT, room temperature 30 min; read-out: 5HT1.

T1 sequence (P14842 whole entry): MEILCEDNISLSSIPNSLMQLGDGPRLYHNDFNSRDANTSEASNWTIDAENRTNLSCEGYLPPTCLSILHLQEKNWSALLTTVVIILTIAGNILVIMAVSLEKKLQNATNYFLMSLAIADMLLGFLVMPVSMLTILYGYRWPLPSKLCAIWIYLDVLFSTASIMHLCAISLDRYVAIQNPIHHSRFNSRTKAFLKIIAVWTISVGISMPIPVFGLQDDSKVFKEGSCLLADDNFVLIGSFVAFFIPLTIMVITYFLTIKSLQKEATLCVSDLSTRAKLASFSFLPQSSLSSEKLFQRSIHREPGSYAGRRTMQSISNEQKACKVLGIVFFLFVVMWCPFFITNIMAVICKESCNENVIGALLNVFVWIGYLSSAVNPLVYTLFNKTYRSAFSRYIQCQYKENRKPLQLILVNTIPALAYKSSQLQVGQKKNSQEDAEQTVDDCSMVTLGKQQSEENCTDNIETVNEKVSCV
Description for serotonin 1A receptor: (1) Binding test on serotonin 1A, serotonin 2 and α1 adrenalin receptors
The following reagents were employed in this test. • 1) Serotonin binoxalate (5-HT binoxalate, mfd. by Sigma Chemical Co.). • 2) Methysergide maleate (mfd. by RBI).
As radioisotope-labeled compounds, use was made of the following reagents (mfd. by NEN). • 3) [^3H] 8-Hydroxy-dipropylaminotetralin (8-OH-DPAT). • 4) [^3H]
Methysergide maleate was dissolved in distilled water before using.
Use was made of SD rats aged 6 to 8 weeks.
The rats were sacrificed by dcapitation to extirpate the cerebra. The hippocampus and cortex were separated therefrom and employed in the binding tests respectively on the serotonin 1A receptor and the serotonin 2 receptor.
The hippocampus was mixed with 50 times (on the wet weight basis) as much as 0.32 M sucrose solution while the cortex was mixed with 10 times as much the same solution. Each mixture was homogenized by using a Teflon glass homogenizer and centrifuged as 1,000× g for 10 min. The supernatant thus obtained was further centrifuged at 20,000× g for 20 min. The obtained precipitate was re-suspended in 50 times (based on the initial wet weight; in the case of the hippocampus) or 10 times (in the case of the cortex) as much a 50 Tris hydrochloride (pH 7.4) and incubated at room temperature for 30 min. After centrifuging at 20,000× g for 20 min, the obtained precipitate was further suspended and centrifuged twice each in the same manner. The precipitate thus obtained was suspended in 100 times (based on the initial wet weight; in the case of the hippocampus) or 20 times (in the case of the cortex) as much a 50 mM Tris hydrochloride solution (pH 7.4) to thereby give a receptor fraction. This receptor fraction was stored at −80° C. until using.
To the receptor fraction of the hippocampus were added a test compound and 0.5 nM of [^3H] 8-hydroxy-dipropylaminotetralin and the resultant mixture was incubated at room temperature for 30 min. Next, it was filtered through a glass filter with the use of a cell harvester. After washing the glass filter with 50 mM Tris hydrochloride (pH 7.4), the radioactivity of the receptor was measured with a liquid scintillation counter. The binding detected in the presence of 10 μM of serotonin binoxalate was referred to as the nonspecific binding.
IC50 was calculated by the probit method, while Ki was determined in accordance with the following formula: Ki=IC50(1+c/Kd) wherein c represents the concentration of the radioisotope-labeled compound, and Kd represents the dissociation constant of the radioisotope-labeled compound with respect to the receptor determined by Scatchard's analysis.

As to `CCN1CCN(c2nc(-c3ccc(CCCOC)cn3)cc3ccccc23)CC1` [Example 141, 1-(1-Ethylpiperazin-4-yl)-3-[5-(3-Methoxypropyl)Pyridin-2-yl]Isoquinoline Oxalate], the pKi on serotonin 2 receptor is 7.69; at serotonin 1A receptor, 8.54.
In the same order, the values of `CCOCCCc1ccc(-c2cc3ccccc3c(N3CCN(CC)CC3)n2)cn1` [Example 142, 1-(1-Ethylpiperazin-4-yl)-3-[2-(3-Ethoxypropyl)Pyridin-5-yl]Isoquinoline Oxalate] are 7.82 and 8.48.
In the same order, the values of `CCN1CCN(c2nc(-c3ccc(CCCOC(C)C)nc3)cc3ccccc23)CC1` [Example 143, 1-(1-Ethylpiperazin-4-yl)-3-[2-[3-(2-Propoxy)Propyl]Pyridin-5-yl]Isoquinoline Oxalate] are 7.76 and 8.66.
In the same order, the values of `CCN1CCN(c2nc(-c3ccc(CCC(C)OC)nc3)cc3ccccc23)CC1` (centres unmarked) [Example 144, 1-(1-Ethylpiperazin-4-yl)-3-[2-(3-Methoxybutyl)Pyridin-5-yl]Isoquinoline Oxalate] are 7.91 and 8.32.
`CCC#Cc1ccc(-c2cc3ccccc3c(N3CCN(CC)CC3)n2)cn1` [Example 146, 1-(1-ethylpiperazin-4-yl)-3-[2-(1-butyn-1-yl)pyridin-5-yl]isoquinoline]: the values for the pKi at serotonin 2 receptor and on serotonin 1A receptor were 8.54 and 6.77, respectively.
Regarding `CCN1CCN(c2nc(-c3ccc(N4CCOCC4)nc3)cc3ccccc23)CC1` [Example 147, 1-(4-ethylpiperazin-1-yl)-3-[2-(morpholin-4-yl)pyridin-5-yl]isoquinoline trihydrochloride], the pKi on serotonin 2 receptor is 8.77; on serotonin 1A receptor, 8.19.
With `CCN1CCN(c2nc(-c3ccc(N4CCOCC4)cn3)cc3ccccc23)CC1` [Example 148, 1-(4-ethylpiperazin-1-yl)-3-[5-(morpholin-4-yl)pyridin-2-yl]isoquinoline trihydrochloride], the pKi was 8.11 on serotonin 2 receptor and 8.20 at serotonin 1A receptor.
As to `CCN1CCN(c2nc(-c3ccc(N4C[C@@H](C)O[C@@H](C)C4)nc3)cc3ccccc23)CC1` [Example 149, 3-[2-(2,6-dimethylmorpholin-4-yl)pyridin-5-yl]-1-(4-ethylpiperazin-1-yl)isoquinoline trihydrochloride], the pKi at serotonin 2 receptor was 7.66; at serotonin 1A receptor, 7.43.
In the same order, the values of `CCN1CCN(c2nc(-c3ccc(N4CCSCC4)nc3)cc3ccccc23)CC1` [Example 150, 1-(4-ethylpiperazin-1-yl)-3-[2-(thiomorpholin-4-yl)pyridin-5-yl]isoquinoline trihydrochloride] are 9.10 and 7.97.
In the same order, the values of `CCN1CCN(c2nc(-c3ccc(N4CC[S+]([O-])CC4)nc3)cc3ccccc23)CC1` [Example 151, 1-(4-ethylpiperazin-1-yl)-3-[2-(S-oxythiomorpholin-4-yl)pyridin-5-yl]isoquinoline trihydrochloride] are 7.10 and 8.15.
On to `CCN1CCN(c2nc(-c3ccc(N4CCC(O)CC4)nc3)cc3ccccc23)CC1` [Example 152, 1-(4-ethylpiperazin-1-yl)-3-[2-(4-hydroxypiperidin-1-yl)pyridin-5-yl]isoquinoline trihydrochloride], for which the pKi on serotonin 2 receptor is 7.91; at serotonin 1A receptor, 8.21.
In the same order, the values of `CCN1CCN(c2nc(-c3ccc(N4CCC(OC)CC4)nc3)cc3ccccc23)CC1` [Example 153, 1-(4-ethylpiperazin-1-yl)-3-[2-(4-methoxypiperidin-1-yl)pyridin-5-yl]isoquinoline trihydrochloride] are 8.82 and 7.89.
For `CCN1CCN(c2nc(-c3ccc(N4CCC(CO)CC4)nc3)cc3ccccc23)CC1` [Example 154, 1-(4-ethylpiperazin-1-yl)-3-[2-(4-hydroxymethylpiperidin-1-yl)pyridin-5-yl]isoquinoline trihydrochloride], in that order: 8.06 and 8.80.
In the same order, the values of `CCN1CCN(c2nc(-c3ccc(C4=CCOCC4)nc3)cc3ccccc23)CC1` [Example 155, 3-[2-(5,6-dihydro-2H-pyran-4-yl)pyridin-5-yl]-1-(4-ethylpiperazin-1-yl)isoquinoline oxalate] are 8.36 and 7.70.
On to `CCN1CCN(c2nc(-c3ccc(C4CCOCC4)nc3)cc3ccccc23)CC1` [Example 156, 3-[2-(tetrahydropyran-4-yl)pyridin-5-yl]-1-(4-ethylpiperazin-1-yl)isoquinoline oxalate], for which the pKi at serotonin 2 receptor is 11.00; at serotonin 1A receptor it was 7.96.
Regarding `CCN1CCN(c2nc(-c3ccc(OCCCc4cccnc4)cc3)cc3ccccc23)CC1` [Example 157, 3-[4-[3-(3-pyridyl)propoxy]phenyl]-1-(4-ethylpiperazin-1-yl)isoquinoline hydrochloride], the pKi on serotonin 2 receptor was 8.31; on serotonin 1A receptor, 7.53.
For `CCN1CCN(c2nc(N3CCN(c4ccccc4)CC3)cc3ccccc23)CC1` [Example 158, 1-(1-ethylpiperazin-4-yl)-3-(1-phenylpiperazin-4-yl)isoquinoline], in that order: 8.97 and 9.39.
For `CCN1CCN(c2nc(N3CCN(c4ccccn4)CC3)cc3ccccc23)CC1` [Example 159, 1-(1-ethylpiperazin-4-yl)-3-[1-(2-pyridyl)piperazin-4-yl]isoquinoline], in that order: 7.88 and 9.19.
In the case of `CCN1CCN(c2nc(-c3csc(CO)c3)cc3ccccc23)CC1` [Example 161, 1-(1-ethylpiperazin-4-yl)-3-(2-hydroxymethylthiophen-4-yl)isoquinoline dihydrochloride], the values for the pKi at serotonin 2 receptor and on serotonin 1A receptor were 7.62 and 7.97, respectively.
In the same order, the values of `CCN1CCN(c2nc(-c3ccc(CO)s3)cc3ccccc23)CC1` [Example 162, 1-(1-ethylpiperazin-4-yl)-3-(2-hydroxymethylthiophen-5-yl)isoquinoline dihydrochloride] are 7.07 and 7.97.
Take `CCN1CCN(c2nc(-c3ccc(CCO)s3)cc3ccccc23)CC1` [Example 163, 1-(1-ethylpiperazin-4-yl)-3-[2-(2-hydroxyethyl)thiophen-5-yl]isoquinoline dihydrochloride]: the pKi at serotonin 2 receptor was 7.72; at serotonin 1A receptor it was 7.60.
For `CCC(O)c1cc(-c2cc3ccccc3c(N3CCN(CC)CC3)n2)cs1` (centres unmarked) [Example 164, 1-(1-ethylpiperazin-4-yl)-3-[2-(1-hydroxypropyl)thiophen-4-yl]isoquinoline hydrochloride], in that order: 7.93 and 8.03.
For `CCC(O)c1ccc(-c2cc3ccccc3c(N3CCN(CC)CC3)n2)s1` (centres unmarked) [Example 165, 1-(1-Ethylpiperazin-4-yl)-3-[2-(1-hydroxypropyl)thiophen-5-yl)isoquinoline hydrochloride], in that order: 7.60 and 7.49.
For `CCC(O)c1ncc(-c2cc3ccccc3c(N3CCN(CC)CC3)n2)s1` (centres unmarked) [Example 170, 1-(1-ethylpiperazin-4-yl)-3-[(1-hydroxypropyl)thiazol-5-yl]isoquinoline dihydrochloride], in that order: 7.60 and 8.52.
For the molecule `CCN1CCN(c2nc(-c3cnc(CCCO)s3)cc3ccccc23)CC1` [Example 171, 1-(1-ethylpiperazin-4-yl)-3-[2-(3-hydroxypropyl)thiazol-5-yl]isoquinoline oxalate], the results for the pKi on serotonin 2 receptor and on serotonin 1A receptor were 7.66 and 8.33, respectively.
In the same order, the values of `CCN1CCN(c2nc(-c3cnc(CCCOC)s3)cc3ccccc23)CC1` [Example 172, 1-(1-ethylpiperazin-4-yl)-3-[2-(3-methoxypropyl)thiazol-5-yl]isoquinoline oxalate] are 7.44 and 8.33.
For `CCCC(=O)Nc1ncc(-c2cc3ccccc3c(N3CCN(CC)CC3)n2)cn1` [Example 174, 3-(2-Propylcarbonylaminopyrimidin-5-Yl)-1-(4-Ethylpiperazin-1-Yl)Isoquinoline Hydrochlroide], in that order: 8.14 and 7.54.
For `CCN1CCN(c2nc(-c3ccc(C4=CCOCC4)s3)cc3ccccc23)CC1` [Example 176, 3-[2-(5,6-Dihydro-2H-Pyran-4-Yl)Thiophen-5-Yl]-1-[4-Ethylpiperazin-1-Yl)Isoquinoline Hydrochloride], in that order: 7.91 and 6.81.
On to `CCN1CCN(c2nc(C#Cc3ccccc3)cc3ccccc23)CC1` [Example 177, 1-(1-Ethylpiperazin-4-Yl)-3-(Phenylethynyl)Isoquinoline Dihydrochloride], for which the pKi on serotonin 2 receptor was 9.30; at serotonin 1A receptor it was 7.35.
Take `CCN1CCN(c2nc(C#Cc3ccc(OC)cc3)cc3ccccc23)CC1` [Example 178, 1-(1-Ethylpiperazin-4-Yl)-3-(4-Methoxyphenyl)Ethynylisoquinoline Dihydrochloride]: the pKi is 9.70 at serotonin 2 receptor and 7.25 on serotonin 1A receptor.
For `CCN1CCN(c2nc(C#CCCc3ccccc3)cc3ccccc23)CC1` [Example 182, 1-(1-Ethylpiperazin-4-Yl)-3-[4-Phenyl-1-Butynyl)Isoquinoline Dihydrochloride], in that order: 7.80 and 8.00.

Source of the values: patent publication US6875761B2 (Eisai Co., Ltd., priority 1997, dated 2005).
